In patent publication US4511390A, “Aralkylcarbamoyl peptide alcohols” (E. I. Du Pont de Nemours and Company, priority 1983, dated 1985):
Values joined by “and” are separate entries in the source; they are usually repeats but may differ in a detail not shown here. Equal entries are not always repeated.

Assays:
pKa = type: physicochemical; details: two values given
corn root sections [1] = assay: Nitrate ion uptake by corn root sections measured with radioactive chlorate ion (36ClO3-) as mimic; type: cell-based, Corn (Pioneer Hybrid 3320); details: 50 ppm test compound; for activation at 50 ppm: Zea mays, read-out: Ion Uptake (percent increase over control) 36ClO3-
Method: (§1) Corn (Pioneer Hybrid 3320), wheat (Arther), sorghum (SC-599-6), barley (CM-721), rice (m101), and cotton (Tamcot SP-37) seeds were disinfected with a 1% sodium hypochlorite solution and placed in 20.3 cm×30.5 cm×5.1 cm Pyrex glass utility trays which were lined with 4 layers of bleached paper towels and irrigated with 150 mL of 0.2 mM CaCl2 solution. The trays were covered with plastic food wrap, perforated to permit air exchange, and placed in a dark growth room which was maintained at 30° and 90% relative humidity. About 48 hours later, another 150 mL of 0.2 mM CaCl2 solution was added to each tray to maintain water sauration of the paper towels.
(§2) Two centimeter root sections were cut 0.5 to 2.5 cm from the tip of 3-day-old etiolated seedling roots. Batches of 20 (for corn and cotton), or 40 (for wheat, barley and rice) root sections were tied in cheesecloth bags, leaving a 20-30 cm length of string to facilitate movement between test solutions. Root tissue was washed at 30±1° by immersing the cheesecloth bags in a well-aerated 0.2 mM K2 HPO4 /KH2 PO4 solution, pH 6.0, for 4 hours. During the last 30 minutes of this washing period, 1 mM potassium nitrate solution was introduced to induce nitrate reductase activity. For uniformity, 100 mL washing solution was used for every bag of root sections (about 300 mg fresh tissue).
Nitrate ion uptake was measured using radioactive chlorate ion (^36 ClO3⊖) as a mimic for nitrate ion (Deane-Drummond et al., Plant Physiol. 70:50-54 (1982)). Uptake was measured by incubating 20 or 40 cheesecloth-bound washed root segments for 30 minutes in 100 mL absorption solution. The absorption solution contained 0.5 mM potassium nitrate, 0.2 mM calcium chloride, 5 mM MES buffer, and 5 mg/L sodium molybdate. This solution was adjusted to pH 6 with potassium hydroxide, and labeled with 10,000 cpm/ml of carrier-free radioactive chlorate ion. Absorption temperatures was maintained at 30±1° in a water bath, and moderate aeration was provided. All test compounds were added to the absorption solution. After the absorption period, the cheesecloth bag containing root sections was rinsed with distilled water for 10 seconds and then immersed in 100 mL of ice-cold, aerated 0.2 mM calcium chloride solution for 20 minutes to remove exchangeable components of absorbed ^36 ClO3⊖. Root sections were then removed from the cheesecloth bags, blotted dry, placed in a preweighed scintillation vial, and weighed to determine fresh tissue weight. One mL water and 10 mL Scinti Verse I (Fisher Scientific Co.) scintillation fluid were added, and radioactivity determined by scintillation counting. The rate of nitrate (^36 ClO3⊖) uptake in micromols per gram fresh weight of tissue per hour was calculated.
(§3) Test compounds are identified in Table I by Example number, and by the identity of substituents X, Y, Z and R in the following formula: [drawing 23]

corn root sections [2] = assay: Nitrate ion uptake by corn root sections (nitrate ion specific electrode); type: cell-based, Corn (Pioneer Hybrid 3320); details: for Ion Uptake (percent increase over control) NO3-: 50 ppm test compound, corn root sections
Method: as §1, §2
(§4) Nitrate ion uptake into corn roots was also determined by homogenizing root segments previously exposed to the nitrate absorption solution (without added ^36 ClO3⊖) with a precooled glass homogenizer in 5 mL of cold extraction medium. This medium contained 23 mM phosphate buffer pH 8.8, 5 mM cysteine, 2.5 mM EDTA, and 0.1% Neutronyx 600 (Onyx Chemical Co., Jersey City, N.J.). The resulting homogenate was centrifuged at 30,000 xg for 15 minutes, and an aliquot of the resulting supernatant solution reserved for nitrate ion determination, using an Orion nitrate ion specific electrode. The same tissue extract was used for nitrate reductase activity determination (below).
as §3

NO3 Reductase = assay: Nitrate reductase activity in extracts of treated corn root sections; type: cell-based, Corn (Pioneer Hybrid 3320); details: 50 ppm test compound
Method: as §1, §2
as §4, with “The same tissue extract was used for nitrate reductase activity determination (below).” left out
Nitrate reductase activity was determined using a modification of the procedure of Hageman and Huckles- by, Methods Enzymol. […]

rice root sections = assay: Nitrate ion uptake by plant root sections, rice; type: cell-based, rice (m101)
Method: as §1
(§5) Two centimeter root sections were cut 0.5 to 2.5 cm from the tip of 3-day-old etiolated seedling roots. […]
(§6) Nitrate ion uptake was measured using radioactive chlorate ion (^36 ClO3⊖) as a mimic for nitrate ion (Deane-Drummond et al., Plant Physiol. 70:50-54 (1982)). Uptake was measured by incubating 20 or 40 cheesecloth-bound washed root segments for 30 minutes in 100 mL absorption solution. […] One mL water and 10 mL Scinti Verse I (Fisher Scientific Co.) scintillation fluid were added, and radioactivity determined by scintillation counting. The rate of nitrate (^36 ClO3⊖) uptake in micromols per gram fresh weight of tissue per hour was calculated.

wheat root sections = assay: Nitrate ion uptake by plant root sections, wheat; type: cell-based, wheat (Arther)
Method: as §1, §5, §6

barley root sections = assay: Nitrate ion uptake by plant root sections, barley; type: cell-based, barley (CM-721)
Method: as §1, §5, §6

corn root sections [3] = assay: Ammonium ion uptake by corn root sections (ammonium ion-specific electrode); type: cell-based, Corn (Pioneer Hybrid 3320); details: 50 ppm test compound
Method: as §1
Two centimeter root sections were cut 0.5 to 2.5 cm from the tip of 3-day-old etiolated seedling roots. Batches of 20 (for corn and cotton), or 40 (for wheat, barley and rice) root sections were tied in cheesecloth bags, leaving a 20-30 cm length of string to facilitate movement between test solutions. Root tissue was washed at 30±1° by immersing the cheesecloth bags in a well-aerated 0.2 mM K2 HPO4 /KH2 PO4 solution, pH 6.0, for 4 hours. […]
Ammonium ion uptake was determined by measuring the disappearance of ammonium ion from an uptake solution containing 1 mmol ammonium chloride, 0.2 mM calcium chloride and 5 mM MES buffer, pH 6.0, with an Orion ammonium ion-specific electrode. […]

sorghum root sections = assay: Nitrate ion uptake by plant root sections, sorghum; type: cell-based, sorghum (SC-599-6)
Method: as §1, §5, §6

cotton root sections = assay: Nitrate ion uptake by plant root sections, cotton; type: cell-based, cotton (Tamcot SP-37)
Method: as §1, §5, §6

corn plants [4] = assay: Field test, grain yield of nitrogen-stressed corn; type: in vivo, corn (Pioneer Hybrid 3535)
Method: Field tests were conducted by seeding corn (Pioneer Hybrid 3535) at a rate sufficient to obtain an excess plant population. The resulting population was thinned after emergence, 14 days after planting, to a density of about 64,000 plants per hectare, with plants about 20 cm apart in each row. The test population was subjected to severe nitrogen stress during development because only 67 kg nitrogen/hectare (60 lb/acre) were applied at planting. Nitrogen stress symptoms were apparent on lower plant leaves 32 days after emergence. Test compounds were applied to plants 34 days after emergence and 26 days prior to anthesis. Average canopy height at time of treatment was 85 cm. The treatments were applied from an acetone/water (1:3) solution with 0.2% added nonionic surfactant, using a hand-held nitrogen-pressurized sprayer. One day following treatment, an application of about 34 kg/ha (30 lb/acre) ammonium nitrate was broadcast on the ground and immediately worked into the root zone by irrigation.

corn plants [5] = assay: Greenhouse test, growth of nitrate-deficient corn plants; type: in vivo; details: spray containing 50 ppm; 2-week old corn plants deficient in nitrate ion
Method: Greenhouse tests were conducted by germinating corn seeds in a 25.4 cm pot containing a commercial potting soil mixture. After two weeks, seedlings were culled, leaving two plants in each pot. Distilled water was applied to maintain moisture levels and to leach carry-over nutrients from the potting soil mixtures. The remaining corn plants were randomized and divided into several groups for testing. Each test plant received a single 10 ml application of a test compound at 50 ppm, which was applied from a hand-held air-pressurized sprayer while the plant was rotated on a turntable in a spray hood. Each test compound was dissolved in a solution containing 50% (by volume) water and 50% AGWT diluent. AGWT diluent contains acetone, glycerol, water and polyoxyethylene sorbitan monolaurate in a volumetric ratio of 459:20:500:1. 250 mL of a complete, nitrate ion-free, potassium ion-free, and phosphate ion-free Hoagland nutrient solution were added to each pot twice weekly. This nutrient solution was supplemented with distilled water to maintain proper soil moisture. […] Plants were allowed to grow to maturity and yields were measured at the conclusion of each test.

Compound: C[C@H]1OCN(C(=O)OCc2ccccc2)[C@@H]1C(=O)O [3-carbobenzoxy-5R-methyloxazolidine-4S-carboxylic acid]
- pKa (pKa): 4.65 and 4.60

Compound: CC(C)[C@@H](CO)NC(=O)[C@@H]1CCCN1C(=O)OCc1ccc(F)cc1 [Example 15, N-(4-Fluorobenzyloxycarbonyl)-L-prolyl-L-valinol]
- activation at 50 ppm (corn root sections [1]): 35%
- Ion Uptake (percent increase over control) NO3- (corn root sections [2]): 30%

Compound: O=C(NCCO)[C@@H]1CCCN1C(=O)OCc1ccccc1 [Example 4, N-Carbobenzoxy-L-prolyl-(β-hydroxyethyl)amide]
- NO3- Reductase (percent increase over control) (NO3 Reductase): 4%
- Ion Uptake (percent increase over control) 36ClO3- (corn root sections [1]): 24%
- Ion Uptake (percent increase over control) NO3- (corn root sections [2]): 30%

Compound: CC(C)[C@@H](CO)NC(=O)[C@@H]1[C@@H](C)OCN1C(=O)OCc1ccccc1 [Example 13, N-Carbobenzoxy-5R-methyloxazolidine-4S-carbonyl-L-valinol]
- Ion Uptake (percent increase over control) 36ClO3- (corn root sections [1]): 20%

Compound: C[C@@H](CO)NC(=O)[C@@H]1CCCN1C(=O)OCc1ccccc1 [Example 5, N-Carbobenzoxy-L-prolyl-L-alaninol]
- activation at 50 ppm (corn root sections [1]): 20%

Compound: CC[C@@H](CO)NC(=O)[C@@H]1CCCN1C(=O)OCc1ccccc1 [Example 6, N-Carbobenzoxy-L-prolyl-L-homoalaninol]
- activation at 50 ppm (corn root sections [1]): 20%
- Ion Uptake (percent increase over control) NO3- (corn root sections [2]): 24%

Compound: CC[C@H](CO)NC(=O)[C@@H]1CCCN1C(=O)OCc1ccccc1 [Example 7, N-Carbobenzoxy-L-prolyl-D-homoalaninol]
- activation at 50 ppm (corn root sections [1]): 40%
- Ion Uptake (percent increase over control) NO3- (corn root sections [2]): 41%

Compound: CC(C)[C@@H](CO)NC(=O)[C@@H]1CCCN1C(=O)OCc1ccccc1 [Example 2, N-Carbobenzoxy-L-prolyl-L-valinol]
- Nitrate Ion Uptake (percent increase over control) (rice root sections; Rice root sections, 50 ppm): 10%
- Nitrate ion uptake enhancement, in words (rice root sections; rice root tissues): insensitive
- Nitrate Ion Uptake (percent increase over control) (wheat root sections; Wheat root sections, 50 ppm): 55%
- Nitrate ion uptake enhancement, in words (wheat root sections; wheat): Significant stimulation
- NO3- Reductase (percent increase over control) (NO3 Reductase): 7%
- activation at 50 ppm (corn root sections [1]): 56%
- Ion Uptake (percent increase over control) NO3- (corn root sections [2]): 65%
- Nitrate Ion Uptake (percent increase over control) (corn root sections [2]; Corn root sections, 50 ppm): 65%
- Nitrate ion uptake enhancement, in words (corn root sections [2]; corn): Significant stimulation
- Optimal media concentration for stimulation of nitrate ion uptake (corn root sections [2]; immersed corn root sections, varying test concentrations): about 50 ppm
- Nitrate Ion Uptake (percent increase over control) (barley root sections; Barley root sections, 50 ppm): 75%
- Nitrate ion uptake enhancement, in words (barley root sections; barley): Significant stimulation
- Ion Uptake (percent increase over control) NH4+ (corn root sections [3]): 100%
- Nitrate Ion Uptake (percent increase over control) (sorghum root sections; Sorghum root sections, 50 ppm): -5%
- Nitrate ion uptake enhancement, in words (sorghum root sections; sorghum root tissues): insensitive
- Nitrate Ion Uptake (percent increase over control) (cotton root sections; Cotton root sections, 50 ppm): -10%
- Nitrate ion uptake enhancement, in words (cotton root sections; cotton root tissues): insensitive
- Grain yield (average) (corn plants [4]; second round of field tests, 0.035, 0.07 and 0.14 kg/ha, controls average 321): 348 bushels/ha
- Increase in grain yield (corn plants [4]; second round of field tests, application rates 0.035, 0.07 and 0.14 kg/ha, all three): 8-10%
- Grain yield (corn plants [4]; sprayed with 500 ppm (0.14 kg/ha), field grown corn, control 232): 248 bushels/ha
- Increase in grain yield (corn plants [4]; sprayed with 500 ppm (0.14 kg/ha), field grown corn, p=0.05, vs. control): 6.3%

Compound: CC(C)[C@@H](CO)NC(=O)[C@@H]1CCCN1C(=O)OCc1ccc(Cl)cc1 [Example 16, N-(p-Chlorobenzyloxycarbonyl) -L-prolyl-L-valinol]
- activation at 50 ppm (corn root sections [1]): 14%

Compound: Cc1ccc(COC(=O)N2CCC[C@H]2C(=O)N[C@H](CO)C(C)C)cc1 [Example 17, N-(p-Methylbenzyloxycarbonyl) -L-prolyl-L-valinol]
- activation at 50 ppm (corn root sections [1]): 35%
- Ion Uptake (percent increase over control) NO3- (corn root sections [2]): 39%

Compound: O=C(O)[C@@H]1COCN1C(=O)OCc1ccccc1 [3-Carbobenzoxyoxazolidine-4S-carboxylic acid]
- pKa (pKa): 4.35 and 4.30

Compound: CC(C)[C@@H](CO)NC(=O)[C@H]1CCCN1C(=O)OCc1ccccc1 [Example 9, N-Carbobenzoxy-D-prolyl-L-valinol]
- activation at 50 ppm (corn root sections [1]): 37%

Compound: CC(C)[C@H](CO)NC(=O)[C@H]1CCCN1C(=O)OCc1ccccc1 [Example 10, N-Carbobenzoxy-D-prolyl-D-valinol]
- activation at 50 ppm (corn root sections [1]): 41%
- Ion Uptake (percent increase over control) NO3- (corn root sections [2]): 36%

Compound: CC(C)C[C@@H](CO)NC(=O)[C@@H]1CCCN1C(=O)OCc1ccccc1 [Example 1, N-Carbobenzoxy-L-prolyl-L-leucinol]
- NO3- Reductase (percent increase over control) (NO3 Reductase): -1%
- activation at 50 ppm (corn root sections [1]): 26%
- Ion Uptake (percent increase over control) NO3- (corn root sections [2]): 40%
- Ion Uptake (percent increase over control) NH4+ (corn root sections [3]): 80%
- Growth of corn plants (corn plants [5]): stimulated growth

Compound: CC(C)[C@@H](CO)NC(=O)[C@@H]1COCN1C(=O)OCc1ccccc1 [Example 12, N-Carbobenzoxy-L-γ-oxaprolyl-L-valinol]
- Ion Uptake (percent increase over control) 36ClO3- (corn root sections [1]): 18%

Compound: O=C(O)[C@H]1COCN1C(=O)OCc1ccccc1 [3-Carbobenzoxy oxazolidine-4R-carboxylic acid]
- pKa (pKa): 3.80 and 3.90

Compound: CC(C)[C@H](CO)NC(=O)[C@@H]1CCCN1C(=O)OCc1ccccc1 [Example 8, N-Carbobenzoxy-L-prolyl-D-Valinol]
- activation at 50 ppm (corn root sections [1]): 12%
